Data taken from ChEMBL document CHEMBL1201862, “PubChem BioAssay data set” (2004).
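96-well plates; 48 h exposure; 5 concentrations. Endpoints by linear interpolation between flanking doses. Not reached: highest tested concentration assigned. GI50 = concentration required for 50% inhibition of growth.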 The source made the active and inactive calls. No stated cut-off is given here; in the data, active = GI50 up to about 1.1 µM and inactive = higher.

Legend:
Test in all cases: growth of human tumour cells (NCI), 48 h
NCI-H460 = system: NCI-H460
NCI/ADR-RES = system: NCI/ADR-RES
SF-268 = system: SF-268
UO-31 = system: UO-31
CCRF-CEM = system: CCRF-CEM
MDA-MB-435 = system: MDA-MB-435
BT-549 = system: BT-549
SF-295 = system: SF-295
OVCAR-8 = system: OVCAR-8
TK-10 = system: TK-10
SK-MEL-5 = system: SK-MEL-5
IGROV-1 = system: IGROV-1
HCT-15 = system: HCT-15
A498 = system: A498
RPMI-8226 = system: RPMI-8226
HCT-116 = system: HCT-116
SF-539 = system: SF-539
HL-60 = system: HL-60
COLO 205 = system: COLO 205
HT-29 = system: HT-29
NCI-H226 = system: NCI-H226
MDA-MB-231 = system: MDA-MB-231
SNB-19 = system: SNB-19
DU-145 = system: DU-145
SK-MEL-28 = system: SK-MEL-28
T47D = system: T47D
HOP-62 = system: HOP-62
Malme-3M = system: Malme-3M
ACHN = system: ACHN
SNB-75 = system: SNB-75
A549 = system: A549
EKVX = system: EKVX
HOP-92 = system: HOP-92
M14 = system: M14
U-251 = system: U-251
OVCAR-5 = system: OVCAR-5
Hs-578T = system: Hs-578T
HCC 2998 = system: HCC 2998
LOX IMVI = system: LOX IMVI
NCI-H23 = system: NCI-H23
SW-620 = system: SW-620
SN12C = system: SN12C
KM12 = system: KM12
UACC-62 = system: UACC-62
NCI-H522 = system: NCI-H522
SR = system: SR
K562 = system: K562
OVCAR-3 = system: OVCAR-3
UACC-257 = system: UACC-257
MOLT-4 = system: MOLT-4
786-0 = system: 786-0
CAKI-1 = system: CAKI-1
MCF7 = system: MCF7
PC-3 = system: PC-3
MDA-N = system: MDA-N
SK-MEL-2 = system: SK-MEL-2
OVCAR-4 = system: OVCAR-4
SK-OV-3 = system: SK-OV-3
RXF 393 = system: RXF 393

With `C=CC1ON(C)CCc2cc(OC)c(OC)cc21` (configuration not stated) the GI50 (NCI-H460) was > 100 µM (inactive), the GI50 (NCI/ADR-RES) was > 100 µM (inactive) and the GI50 (SF-268) was 39.6 µM (inactive). For the same compound, the GI50 (UO-31) was > 100 µM (inactive), the GI50 (CCRF-CEM) was > 100 µM (inactive) and the GI50 (MDA-MB-435) was > 100 µM (inactive). For the same compound, the GI50 (BT-549) was > 100 µM (inactive), the GI50 (SF-295) was > 100 µM (inactive) and the GI50 (OVCAR-8) was > 100 µM (inactive). The GI50 (TK-10) was > 100 µM (inactive), the GI50 (SK-MEL-5) was > 100 µM (inactive) and the GI50 (IGROV-1) was > 100 µM (inactive). For the same compound, the GI50 (HCT-15) was > 100 µM, the GI50 (A498) was > 100 µM (inactive) and the GI50 (RPMI-8226) was > 100 µM (inactive). The GI50 (HCT-116) was > 100 µM (inactive), the GI50 (SF-539) was > 100 µM (inactive) and the GI50 (HL-60) was > 100 µM (inactive). For the same compound, the GI50 (COLO 205) was > 100 µM (inactive), the GI50 (HT-29) was > 100 µM (inactive) and the GI50 (NCI-H226) was > 100 µM (inactive). For the same compound, the GI50 (MDA-MB-231) was > 100 µM (inactive), the GI50 (SNB-19) was > 100 µM (inactive) and the GI50 (DU-145) was > 100 µM (inactive). For the same compound, the GI50 (SK-MEL-28) was > 100 µM (inactive), the GI50 (T47D) was 83.2 µM (inactive) and the GI50 (HOP-62) was > 100 µM (inactive). The GI50 (Malme-3M) was > 100 µM (inactive), the GI50 (ACHN) was > 100 µM (inactive) and the GI50 (SNB-75) was > 100 µM (inactive). The GI50 (A549) was > 100 µM (inactive), the GI50 (EKVX) was > 100 µM (inactive) and the GI50 (HOP-92) was > 100 µM (inactive). For the same compound, the GI50 (M14) was > 100 µM (inactive), the GI50 (U-251) was > 100 µM (inactive) and the GI50 (OVCAR-5) was > 100 µM (inactive). The GI50 (Hs-578T) was > 100 µM (inactive), the GI50 (HCC 2998) was > 100 µM (inactive) and the GI50 (LOX IMVI) was > 100 µM (inactive). The GI50 (NCI-H23) was > 100 µM (inactive), the GI50 (SW-620) was > 100 µM (inactive) and the GI50 (SN12C) was > 100 µM (inactive). For the same compound, the GI50 (KM12) was > 100 µM (inactive), the GI50 (UACC-62) was 65.6 µM (inactive) and the GI50 (NCI-H522) was > 100 µM (inactive). For the same compound, the GI50 (SR) was > 100 µM (inactive), the GI50 (K562) was > 100 µM (inactive) and the GI50 (OVCAR-3) was > 100 µM (inactive). The GI50 (UACC-257) was > 100 µM (inactive), the GI50 (MOLT-4) was > 100 µM (inactive) and the GI50 (786-0) was > 100 µM (inactive). The GI50 (CAKI-1) was > 100 µM (inactive), the GI50 (MCF7) was 1.63 µM (inactive) and the GI50 (PC-3) was > 100 µM (inactive). The GI50 (MDA-N) was > 100 µM (inactive).
`CCOC(=O)CCC(NC(=O)Cc1ccc(Oc2nc3ccccc3nc2-c2ccccc2)cc1)C(=O)OCC` (configuration not stated) was tested, and the GI50 (NCI-H460) was > 100 µM (inactive), the GI50 (NCI/ADR-RES) was 70.8 µM (inactive) and the GI50 (SF-268) was 27 µM (inactive). For the same compound, the GI50 (UO-31) was 52.5 µM (inactive), the GI50 (CCRF-CEM) was > 100 µM (inactive) and the GI50 (MDA-MB-435) was > 100 µM (inactive). For the same compound, the GI50 (BT-549) was > 100 µM (inactive), the GI50 (SF-295) was 67.1 µM (inactive) and the GI50 (TK-10) was 96.4 µM (inactive). For the same compound, the GI50 (SK-MEL-5) was 57.9 µM (inactive), the GI50 (HCT-15) was > 100 µM and the GI50 (A498) was > 100 µM (inactive). For the same compound, the GI50 (RPMI-8226) was > 100 µM (inactive), the GI50 (SK-MEL-2) was > 100 µM (inactive) and the GI50 (HCT-116) was > 100 µM (inactive). The GI50 (SF-539) was 29.9 µM (inactive), the GI50 (HL-60) was > 100 µM (inactive) and the GI50 (COLO 205) was > 100 µM (inactive). The GI50 (HT-29) was > 100 µM (inactive), the GI50 (OVCAR-4) was 56.4 µM (inactive) and the GI50 (NCI-H226) was 19.5 µM (inactive). For the same compound, the GI50 (MDA-MB-231) was > 100 µM (inactive), the GI50 (SNB-19) was 50.6 µM (inactive) and the GI50 (DU-145) was > 100 µM (inactive). For the same compound, the GI50 (SK-MEL-28) was > 100 µM (inactive), the GI50 (T47D) was 24.9 µM (inactive) and the GI50 (HOP-62) was 45.6 µM (inactive). For the same compound, the GI50 (Malme-3M) was > 100 µM (inactive), the GI50 (ACHN) was > 100 µM (inactive) and the GI50 (SNB-75) was 37.8 µM (inactive). For the same compound, the GI50 (A549) was > 100 µM (inactive), the GI50 (EKVX) was > 100 µM (inactive) and the GI50 (M14) was > 100 µM (inactive). For the same compound, the GI50 (U-251) was 75.9 µM (inactive), the GI50 (OVCAR-5) was > 100 µM (inactive) and the GI50 (Hs-578T) was 34.8 µM (inactive). The GI50 (SK-OV-3) was 58.6 µM (inactive), the GI50 (HCC 2998) was > 100 µM (inactive) and the GI50 (NCI-H23) was > 100 µM (inactive). For the same compound, the GI50 (SW-620) was > 100 µM (inactive), the GI50 (SN12C) was > 100 µM (inactive) and the GI50 (KM12) was > 100 µM (inactive). The GI50 (UACC-62) was > 100 µM (inactive), the GI50 (NCI-H522) was 34.6 µM (inactive) and the GI50 (SR) was > 100 µM (inactive). For the same compound, the GI50 (K562) was 63.2 µM (inactive), the GI50 (OVCAR-3) was 96.8 µM (inactive) and the GI50 (RXF 393) was 37.6 µM (inactive). For the same compound, the GI50 (UACC-257) was > 100 µM (inactive), the GI50 (MOLT-4) was > 100 µM (inactive) and the GI50 (786-0) was 35.5 µM (inactive). The GI50 (CAKI-1) was > 100 µM (inactive), the GI50 (MCF7) was 91 µM (inactive) and the GI50 (PC-3) was 41.9 µM (inactive). For the same compound, the GI50 (MDA-N) was > 100 µM (inactive).
With `CO[C@H](C)[C@](O)(C(=O)OCC1=CCN2CC[C@@H](O)[C@H]12)C(C)C` the GI50 (NCI-H460) was 28.5 µM (inactive), the GI50 (NCI/ADR-RES) was > 100 µM (inactive) and the GI50 (SF-268) was > 100 µM (inactive). The GI50 (UO-31) was > 100 µM (inactive), the GI50 (CCRF-CEM) was > 100 µM (inactive) and the GI50 (MDA-MB-435) was > 100 µM (inactive). The GI50 (BT-549) was > 100 µM (inactive), the GI50 (SF-295) was > 100 µM (inactive) and the GI50 (OVCAR-8) was > 100 µM (inactive). The GI50 (TK-10) was > 100 µM (inactive), the GI50 (SK-MEL-5) was > 100 µM (inactive) and the GI50 (IGROV-1) was > 100 µM (inactive). The GI50 (HCT-15) was 55.2 µM, the GI50 (A498) was > 100 µM (inactive) and the GI50 (RPMI-8226) was > 100 µM (inactive). The GI50 (SK-MEL-2) was > 100 µM (inactive), the GI50 (HCT-116) was > 100 µM (inactive) and the GI50 (SF-539) was > 100 µM (inactive). For the same compound, the GI50 (HL-60) was > 10 µM (inactive), the GI50 (COLO 205) was > 100 µM (inactive) and the GI50 (HT-29) was > 100 µM (inactive). For the same compound, the GI50 (OVCAR-4) was > 100 µM (inactive), the GI50 (NCI-H226) was > 100 µM (inactive) and the GI50 (MDA-MB-231) was > 100 µM (inactive). The GI50 (SNB-19) was > 100 µM (inactive), the GI50 (DU-145) was > 100 µM (inactive) and the GI50 (SK-MEL-28) was > 100 µM (inactive). For the same compound, the GI50 (T47D) was > 100 µM (inactive), the GI50 (HOP-62) was > 100 µM (inactive) and the GI50 (ACHN) was 73.3 µM (inactive). For the same compound, the GI50 (SNB-75) was > 100 µM (inactive), the GI50 (A549) was > 100 µM (inactive) and the GI50 (EKVX) was > 100 µM (inactive). The GI50 (HOP-92) was > 100 µM (inactive), the GI50 (M14) was > 100 µM (inactive) and the GI50 (U-251) was > 100 µM (inactive). For the same compound, the GI50 (OVCAR-5) was > 100 µM (inactive), the GI50 (Hs-578T) was > 100 µM (inactive) and the GI50 (SK-OV-3) was > 100 µM (inactive). The GI50 (HCC 2998) was > 100 µM (inactive), the GI50 (LOX IMVI) was > 100 µM (inactive) and the GI50 (NCI-H23) was > 100 µM (inactive). The GI50 (SW-620) was > 100 µM (inactive), the GI50 (SN12C) was > 100 µM (inactive) and the GI50 (KM12) was > 100 µM (inactive). For the same compound, the GI50 (UACC-62) was > 100 µM (inactive), the GI50 (NCI-H522) was > 100 µM (inactive) and the GI50 (SR) was > 100 µM (inactive). For the same compound, the GI50 (K562) was > 100 µM (inactive), the GI50 (OVCAR-3) was > 100 µM (inactive) and the GI50 (UACC-257) was > 100 µM (inactive). The GI50 (MOLT-4) was > 100 µM (inactive), the GI50 (786-0) was > 100 µM (inactive) and the GI50 (CAKI-1) was > 100 µM (inactive). For the same compound, the GI50 (MCF7) was > 100 µM (inactive), the GI50 (PC-3) was > 100 µM (inactive) and the GI50 (MDA-N) was > 100 µM (inactive).
